Legend:
[1] = target: T1, Amine oxidase [flavin-containing] B (Rattus norvegicus, UniProt P19643); test: Ability to inhibit Monoamine oxidase B enzyme
T1 sequence (P19643 whole entry): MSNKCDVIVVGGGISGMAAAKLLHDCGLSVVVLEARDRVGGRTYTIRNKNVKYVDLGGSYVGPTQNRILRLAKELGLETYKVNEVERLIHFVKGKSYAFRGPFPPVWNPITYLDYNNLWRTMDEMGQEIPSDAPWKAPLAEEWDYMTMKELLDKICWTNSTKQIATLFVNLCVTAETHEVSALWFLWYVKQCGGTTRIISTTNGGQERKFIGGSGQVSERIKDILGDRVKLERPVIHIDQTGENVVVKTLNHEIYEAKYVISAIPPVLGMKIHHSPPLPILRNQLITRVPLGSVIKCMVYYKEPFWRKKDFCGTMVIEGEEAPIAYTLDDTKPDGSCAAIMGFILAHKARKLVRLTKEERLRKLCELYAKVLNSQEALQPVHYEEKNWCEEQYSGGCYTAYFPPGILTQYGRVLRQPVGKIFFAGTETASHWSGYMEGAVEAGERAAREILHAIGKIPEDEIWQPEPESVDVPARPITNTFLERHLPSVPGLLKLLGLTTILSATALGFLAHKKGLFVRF

[2] = target: T2, Amine oxidase [flavin-containing] A (Rattus norvegicus, UniProt P21396); test: Ability to inhibit Monoamine oxidase A enzyme
T2 sequence (P21396 whole entry): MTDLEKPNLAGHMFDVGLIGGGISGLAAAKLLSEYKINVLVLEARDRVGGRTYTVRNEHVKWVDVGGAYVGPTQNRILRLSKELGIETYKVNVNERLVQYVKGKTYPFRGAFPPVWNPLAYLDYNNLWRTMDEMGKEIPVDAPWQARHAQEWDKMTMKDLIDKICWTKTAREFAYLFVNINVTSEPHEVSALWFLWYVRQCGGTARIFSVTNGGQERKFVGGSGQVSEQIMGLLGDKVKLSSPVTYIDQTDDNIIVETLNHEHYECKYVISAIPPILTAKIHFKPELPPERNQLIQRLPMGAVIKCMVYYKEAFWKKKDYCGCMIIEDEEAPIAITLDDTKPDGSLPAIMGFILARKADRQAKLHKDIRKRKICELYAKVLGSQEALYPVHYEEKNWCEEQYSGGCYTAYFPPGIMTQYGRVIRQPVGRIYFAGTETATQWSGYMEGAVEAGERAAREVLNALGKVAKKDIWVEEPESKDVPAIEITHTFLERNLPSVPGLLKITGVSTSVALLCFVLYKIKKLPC

| SMILES | IC50 [1] [µM] | IC50 [2] [µM] |
| --- | --- | --- |
| c1ccc(-c2cc3c(nn2)-c2ccccc2C3)cc1 | 23.4 | – |
| O=C1c2ccccc2-c2nnc(C(F)(F)F)cc21 | > 25 | 25 |
| O=C1c2ccccc2-c2nnc(-c3ccc(C(F)(F)F)cc3)cc21 | – | 1 |
| Cc1cc2c(nn1)-c1ccccc1C2=O | – | > 100 |
| O=C1c2ccccc2-c2nnc(/C=C/c3ccccc3)cc21 | – | > 1 |
| O=C1c2ccccc2-c2nnc(-c3cccc(Br)c3)cc21 | – | 1 |
| N#Cc1ccc(-c2cc3c(nn2)-c2ccccc2C3=O)cc1 | – | 25 |
| O=C1c2ccccc2-c2nnc(-c3ccccc3F)cc21 | 18.1 | > 20 |
| COc1cccc(-c2cc3c(nn2)-c2ccccc2C3=O)c1 | – | 50 |
| O=C1c2ccccc2-c2nncc(-c3ccccc3)c21 | 93.7 | 34.3 |
| O=C(O)c1ccc(-c2cc3c(nn2)-c2ccccc2C3=O)cc1 | 100 | 100 |
| Cc1ccccc1-c1cc2c(nn1)-c1ccccc1C2=O | – | 10 |
| Cc1nnc2c(c1Cc1ccccc1)C(=O)c1ccccc1-2 | 83.5 | 100 |
| O=C1c2ccccc2-c2nnc3c(c21)CCc1ccccc1-3 | 50 | 50 |
| Nc1cccc(-c2cc3c(nn2)-c2ccccc2C3=O)c1 | – | 25.9 |
| O=C1c2ccccc2-c2nnc(-c3ccc(Cl)cc3)cc21 | – | > 5 |
| COc1ccccc1-c1cc2c(nn1)-c1ccccc1C2=O | > 50 | 50 |
| COc1cc(-c2cc3c(nn2)-c2ccccc2C3=O)ccc1O | 10 | 10 |
| Cc1c(-c2ccccc2)nnc2c1C(=O)c1ccccc1-2 | > 100 | 100 |
| O=C1c2ccccc2-c2nnc(-c3ccccc3O)cc21 | > 1 | 1 |
| Nc1ccc(-c2cc3c(nn2)-c2ccccc2C3=O)cc1 | 24.7 | 36.8 |
| O=C1c2ccccc2-c2nnc(-c3cccs3)cc21 | 1 | 1 |

| SMILES | IC50 [1] [µM] | IC50 [2] [µM] |
| --- | --- | --- |
| O=C1c2ccccc2-c2nnccc21 | 27.5 | 97.6 |
| O=C1c2ccccc2-c2nnc(-c3ccc([N+](=O)[O-])cc3)cc21 | – | 25 |
| O=C1c2ccccc2-c2nnc(-c3cc(C(F)(F)F)cc(C(F)(F)F)c3)cc21 | > 2 | 1 |
| O=C1c2ccccc2-c2nnc3ccccc3c21 | 1 | 1 |
| O=C1c2ccccc2-c2nnc(-c3cccc([N+](=O)[O-])c3)cc21 | > 0.5 | 1 |
| O=C1c2ccccc2-c2nncc(Cc3ccccc3)c21 | 50 | 50 |
| O=C(c1ccccc1)c1c(-c2ccccc2)nnc2c1C(=O)c1ccccc1-2 | 7.7 | 10 |
| CC(=O)c1ccc(-c2cc3c(nn2)-c2ccccc2C3=O)cc1 | – | > 10 |
| O=C1c2ccccc2-c2nnc(-c3ccccc3)c(Cc3ccccc3)c21 | – | > 10 |
| CCOC(=O)c1c(-c2ccccc2)nnc2c1C(=O)c1ccccc1-2 | 5.3 | > 50 |
| O=C(c1ccccc1)c1cc2c(nn1)-c1ccccc1C2=O | 16.1 | > 50 |
| O=C1c2ccccc2-c2nnc(-c3ccc(F)cc3)cc21 | – | 30.6 |
| O=C1c2ccccc2-c2nnc(-c3cccc(C(F)(F)F)c3)cc21 | – | > 5 |
| O=C1c2ccccc2-c2nnc(CCc3ccccc3)cc21 | – | 50 |
| O=C1c2ccccc2-c2nnc(-c3ccc4ccccc4c3)cc21 | – | 10 |
| O=C1c2ccccc2-c2nnc(-c3ccco3)cc21 | – | > 50 |
| O=C1c2ccccc2-c2nnc(-c3ccc(Br)cc3)cc21 | – | 1 |
| O=C1c2ccccc2-c2nnc(-c3ccc(O)cc3)cc21 | – | > 50 |
| O=C1c2ccccc2-c2nnc(Cc3ccccc3)cc21 | – | 100 |
| O=C1c2cc(O)ccc2-c2nnc(-c3cccc(C(F)(F)F)c3)cc21 | 5.1 | 5 |
| N#Cc1cccc(-c2cc3c(nn2)-c2ccccc2C3=O)c1 | – | > 10 |
| O=C1c2ccccc2-c2nnc(-c3cccc(Cl)c3)cc21 | – | > 5 |

| SMILES | IC50 [1] [µM] | IC50 [2] [µM] |
| --- | --- | --- |
| O=C1c2ccccc2-c2nnc(-c3ccccc3C(F)(F)F)cc21 | 10 | 10 |
| O=C1c2ccccc2-c2nnc3c(c21)-c1ccccc1CC3 | 50 | 50 |
| O=C1c2ccccc2-c2nnc(-c3ccccc3)cc21 | – | 25 |
| O=C1c2ccccc2-c2nnc(-c3ccccc3[N+](=O)[O-])cc21 | – | 100 |
| O=C1c2ccccc2-c2nnc(-c3cccc(O)c3)cc21 | > 1 | 1 |
| O=C1c2ccccc2-c2nnc3c(c21)CCCC3 | 100 | 50.5 |
| O=C1c2ccccc2-c2nnc3ccc4ccccc4c3c21 | 10 | 10 |
| O=C1c2ccccc2-c2nnc(-c3cccc4ccccc34)cc21 | > 5 | 10 |
| O=C1c2ccccc2-c2nnc(-c3cc(Cl)cc(Cl)c3)cc21 | 0.71 | 1 |
| COc1ccc2c(c1)C(=O)c1cc(-c3cccc(C(F)(F)F)c3)nnc1-2 | – | 5 |
| COc1ccc(-c2cc3c(nn2)-c2ccccc2C3=O)cc1OC | 1 | 1 |
| COc1ccc(-c2cc3c(nn2)-c2ccccc2C3=O)cc1 | – | 10 |
| CC(=O)Nc1ccc(-c2cc3c(nn2)-c2ccccc2C3=O)cc1 | > 10 | > 10 |
| O=C(O)CCc1cc2c(nn1)-c1ccccc1C2=O | 100 | 100 |
| O=C1c2ccccc2-c2nnc(-c3cccc(F)c3)cc21 | – | 10 |
| O=C1c2ccccc2-c2nnc(-c3ccccc3Cl)cc21 | – | > 50 |
| CCCCOc1ccc(-c2cc3c(nn2)-c2ccccc2C3=O)cc1 | 10 | 10 |
| O=C1c2ccccc2-c2nnc(-c3cccnc3)cc21 | > 25 | > 25 |
| Cc1nnc2c(c1-c1ccccc1)C(=O)c1ccccc1-2 | – | 50 |
| O=C1c2ccccc2-c2nnc(-c3ccc(F)c(F)c3)cc21 | – | 1 |
| O=C1c2ccccc2-c2nnc(-c3ccccn3)cc21 | > 25 | 25 |
| O=C1c2ccccc2-c2nnc(-c3ccc(N4CCCCC4)cc3)cc21 | 1 | 1 |

Reference: ChEMBL document CHEMBL1128564, “Inhibition of monoamine oxidase-B by 5H-indeno[1,2-c]pyridazines: biological activities, quantitative structure-activity relationships (QSARs) and 3D-QSARs” (J Med Chem, 1995)
